Read-outs that look alike come from different tables or passages of the source.
Assays:
P. falciparum NF54 = assay: In vitro microplate assay against P. falciparum NF54 (3H-hypoxanthine incorporation); format: cell-based, Plasmodium falciparum; details: for S.I. = IC50 (Cyt.)/IC50 (PfNF54): L-6 cells IC50 / PfNF54 IC50; for IC50: average of four determinations, read-out: PfNF54 IC50
Experimental: (§1) All newly prepared compounds were tested for their in vitro activity against the chloroquine sensitive strain NF54 of P. falciparum. Cytotoxicity was determined using L-6 cells (rat skeletal myofibroblasts). Chloroquine and podophyllotoxin were used as standards.
The in vitro activity of compounds against erythrocytic stages of the drug sensitive NF54 strain of P. falciparum […] was determined using a ^3H-hypoxanthine incorporation assay. Compounds were dissolved in DMSO at 10 mg/mL and further diluted in medium before adding to parasite cultures that were incubated in RPMI 1640 medium without hypoxanthine, supplemented with HEPES (5.94 g/L), NaHCO3 (2.1 g/L), neomycin (100 U/mL), AlbumaxR (5 g/L) and washed human red blood cells A+ at 2.5% haematocrit (0.3% parasitaemia). Serial drug dilutions of eleven 3-fold dilutions steps covering a range from 100 to 0.002 µg/mL were prepared. The 96-well plates were incubated in a humidified atmosphere at 37 °C; 4% CO2, 3% O2, 93% N2. After 48 h of incubation time, 0.05 mL of ^3H-hypoxanthine (=0.5 µCi) was added to each well of the plate. The plates were incubated for further 24 h under the same conditions. Plates were then harvested using a Betaplate^TM cell harvester (Wallac, Zurich, Switzerland). Red blood cells were transferred onto a glass fiber filter and then washed with distilled water. The dried filters were inserted into a plastic foil with 10 mL of scintillation fluid and counted in a Betaplate^TM liquid scintillation counter (Wallac, Zurich, Switzerland). IC50 values were calculated from sigmoidal inhibition curves by linear regression using Microsoft Excel. Chloroquine (Sigma C6628) was used as control.

[1] = Parallel artificial membrane permeability assay (PAMPA); details: for Papp at 5 h, 200 µM: pH 7.4, Pe
Experimental: The parallel artificial membrane permeability assay (PAMPA) is a fast and easy high-throughput assay to determine passive permeability of compounds through semi-permeable membranes (for example the blood-brain-barrier) without the influence of efflux pumps or transporter molecules.
With the high-throughput PAMPA the newly synthesized compounds were tested for their passive permeability through cell membranes without the influence of efflux pumps or transporter proteins. The assay was performed using a Corning® Gentest^TM Pre-coated PAMPA Plate System with 96-well polystyrene plates. The bottom of the acceptor plate consists of a porous membrane, whereby the pores are lined with a lipid-oil-lipid triple layer. Stock solutions of each test compound at 10 mM were prepared in DMSO or methanol and diluted with phosphate-buffered saline (PBS at a pH of 7.4) to a final concentration of 200 µM. […] The donor plate (bottom plate) was filled with the compound solutions, whereby all compounds were tested in quadruplicates. Each well of the acceptor plate (top plate) was filled with PBS buffer. Donor and acceptor plates were combined and incubated at room temperature for 5 h. After that, the plates were separated and 150 µL of each well of both plates were transferred to 96-well UV plates (Greiner Bio-One). Absorption at different wavelengths covering a range from 200 to 300 nm was measured using a SpectraMax M3 UV plate reader. […] The plates were analyzed at the wavelength where the R^2 value of the calibration curve was higher than 0.99 [41]. […] (2) cequ=[cD(t)∗VD+cA(t)∗VA]/(VD+VA) where: • VD—donor well volume (0.3 mL); • VA—acceptor well volume (0.2 mL); • cA(t)—acceptor well compound concentration at time t; • cD(t)—donor well compound concentration at time t.
Recovery of compounds from donor and acceptor wells (mass retention) was calculated as shown in the equation below. Data were only accepted when recovery exceeded 70%. (3) R=1−[cD(t)∗VD+cA(t)∗VA]/(c0∗VD) where: • R—mass retention (%); • VD—donor well volume (0.3 mL); • VA—acceptor well volume (0.2 mL); • cA(t)—acceptor well compound concentration at time t; • cD(t)—donor well compound concentration at time t; • c0—initial donor well compound concentration (200 µM).

in vitro = details: rat
Experimental: as §1
The cytotoxicity assays were performed using 96-well microtiter plates, each well containing 4000 L-6 cells (a primary cell line derived from rat skeletal myofibroblasts, ATCC CRL-1458^TM) in 0.1 mL of RPMI 1640 medium supplemented with 1% glutamine (200 mM) and 10% fetal bovine serum. Serial drug dilutions of eleven 3-fold dilution steps covering a range from 100 to 0.002 µg/mL were prepared. After 70 h of incubation, the plates were inspected under an inverted microscope to assure growth of the controls and sterile conditions. Then, 0.01 mL resazurin solution (resazurin, 12.5 mg in 100 mL double-distilled water) was added to each well and the plates were incubated for another 2 h. The plates were read with a Spectramax Gemini XS microplate fluorometer (Molecular Devices Cooperation, Sunnyvale, CA, USA) using an excitation wavelength of 536 nm and an emission wavelength of 588 nm. IC50 values were calculated by linear regression from the sigmoidal dose inhibition curves using SoftmaxPro software (Molecular Devices Cooperation, Sunnyvale, CA, USA). Podophyllotoxin (Sigma P4405) was used as control.

[2] = PAMPA, PBS pH 7.4, 200 µM, 5 h, room temperature
[3] = Plasmodium falciparum, NF54, chloroquine sensitive strain NF54, erythrocytic stages
[4] = chloroquine sensitive strain NF54, erythrocytic stages

CCN(CC)CCCC(C)Nc1ccnc2cc(Cl)ccc12 (stereo not drawn) [CQ, chloroquine, reference compound]
S.I. = IC50 (Cyt.)/IC50 (PfNF54) (P. falciparum NF54): 9672

Cn1c(=O)c2c(ncn2C)n(C)c1=O [Caffeine, reference compound]
Pe ([1]; PAMPA standards): 80 nm/s
Pe [1, 2]: 8.00 10^−6 cm/s

CC(C)(C)OC(=O)N1CCN(c2ccccc2NC(=O)c2cccc([N+](=O)[O-])c2Oc2ccc(F)cc2)CC1 [Compound 28, tert-Butyl 4-{2-[2-(4-fluorophenoxy)-3-nitrobenzamido]phenyl}piperazine-1-carboxylate]
IC50 (P. falciparum NF54; [3]): 0.591 µM
Papp at 5 h, 200 µM [1, 2]: 1.68 ×10⁻⁶ cm/s
IC50 at 72 h (in vitro): 90.4 µM

CC(C)(C)OC(=O)N1CCN(c2ccccc2NC(=O)c2cccc(C(F)(F)F)c2Sc2ccc(F)cc2)CC1 [Compound 29, tert-Butyl 4-(2-{2-[(4-fluorophenyl)sulfanyl]-3-(trifluoromethyl)benz-amido}phenyl) piperazine-1-carboxylate]
S.I. = IC50 (Cyt.)/IC50 (PfNF54) (P. falciparum NF54): 850.5
IC50 (P. falciparum NF54; [3]): 0.195 µM
Pe [1, 2]: 3.77 10^−6 cm/s
Papp at 5 h, 200 µM [1, 2]: 4.31 ×10⁻⁶ cm/s
IC50 at 72 h (in vitro): 166 µM

CC(C)(C)OC(=O)N1CCN(c2ccccc2NC(=O)c2ccccc2Oc2ccccc2)CC1 [Compound 30, tert-Butyl 4-[2-(2-phenoxybenzamido)phenyl]piperazin-1-carboxylate]
S.I. = IC50 (Cyt.)/IC50 (PfNF54) (P. falciparum NF54): 19.87
IC50 (P. falciparum NF54; [3]): 1.13 µM
Papp at 5 h, 200 µM [1, 2]: 8.52 ×10⁻⁶ cm/s
IC50 at 72 h (in vitro): 22.5 µM

CC(C)(C)OC(=O)N1CCN(c2ccccc2NC(=O)c2cccc(C(F)(F)F)c2Nc2ccccc2)CC1 [Compound 31, tert-Butyl 4-{2-[2-anilino-3-(trifluoromethyl)benzamido]phenyl}piperazin-1-carboxylate]
IC50 (P. falciparum NF54; [3]): 0.614 to 0.636 µM
IC50 (P. falciparum NF54; [4]): 0.614 µM
Papp at 5 h, 200 µM [1, 2]: 0.65 ×10⁻⁶ cm/s
IC50 at 72 h (in vitro): 129 µM

CC(C)(C)OC(=O)N1CCN(c2ccccc2NC(=O)c2cccc(C(F)(F)F)c2Nc2ccc(F)cc2)CC1 [Compound 32, tert-Butyl 4-{2-[2-(4-fluoroanilino)-3-(trifluoromethyl)benzamido]phenyl}piperazin-1-carboxylate]
IC50 (P. falciparum NF54; [3]): 0.614 to 0.636 µM
IC50 (P. falciparum NF54; [4]): 0.636 µM
Papp at 5 h, 200 µM [1, 2]: 0.57 ×10⁻⁶ cm/s
IC50 at 72 h (in vitro): 123 µM

CC(C)(C)C(=O)N1CCN(c2ccccc2NC(=O)c2cccc([N+](=O)[O-])c2Oc2ccc(F)cc2)CC1 [Compound 34, N-{2-[4-(2,2-Dimethylpropanoyl)piperazin-1-yl]phenyl}-2-(4-fluorophenoxy)-3-nitrobenzamid]
IC50 (P. falciparum NF54; [3]): 2.61 µM
Papp at 5 h, 200 µM [1, 2]: 6.92 ×10⁻⁶ cm/s
IC50 at 72 h (in vitro): 114 µM

CC(C)(C)C(=O)N1CCN(c2ccccc2NC(=O)c2cccc(F)c2Oc2ccc(F)cc2)CC1 [Compound 35, N-{2-[4-(2,2-Dimethylpropanoyl)piperazin-1-yl]phenyl}-3-fluoro-2-(4-fluorophenoxy)benzamid]
IC50 (P. falciparum NF54; [3]): 2.14 µM
Pe [1, 2]: 0.00 10^−6 cm/s
IC50 at 72 h (in vitro): 15.6 µM

CC(C)(C)OC(=O)N1CCN(c2ccc(NC(=O)c3ccccc3Oc3ccc(F)cc3)cc2)CC1 [Compound 36, tert-Butyl 4-{4-[2-(4-fluorophenoxy)benzamido]phenyl}piperazine-1-carboxylate]
IC50 (P. falciparum NF54; [3]): 3.4 µM
Papp at 5 h, 200 µM [1, 2]: 2.84 ×10⁻⁶ cm/s
IC50 at 72 h (in vitro): 203 µM

CC(C)(C)OC(=O)N1CCN(c2ccc(NC(=O)c3cccc(F)c3Oc3ccc(F)cc3)cc2)CC1 [Compound 37, tert-Butyl 4-{4-[3-fluoro-2-(4-fluorophenoxy)benzamido]phenyl}piperazine-1-carb-oxylate]
IC50 (P. falciparum NF54; [3]): 4.07 µM
Papp at 5 h, 200 µM [1, 2]: 0.7 ×10⁻⁶ cm/s
IC50 at 72 h (in vitro): 35.3 µM

CC(C)(C)OC(=O)N1CCN(c2ccc(NC(=O)c3cccc([N+](=O)[O-])c3Oc3ccc(F)cc3)cc2)CC1 [Compound 38, tert-Butyl 4-{4-[2-(4-fluorophenoxy)-3-nitrobenzamido]phenyl}piperazine-1-carb-oxylate]
IC50 (P. falciparum NF54; [3]): 1.43 µM
Papp at 5 h, 200 µM [1, 2]: 1.53 ×10⁻⁶ cm/s
IC50 at 72 h (in vitro): 70.8 µM

CC(C)(C)OC(=O)N1CCN(c2ccc(NC(=O)c3cccc(C(F)(F)F)c3Sc3ccc(F)cc3)cc2)CC1 [Compound 39, tert-Butyl 4-(4-{2-[(4-fluorophenyl)sulfanyl]-3-(trifluoromethyl)benzamido}phenyl) piperazine-1-carboxylate]
S.I. = IC50 (Cyt.)/IC50 (PfNF54) (P. falciparum NF54): 212.8
IC50 (P. falciparum NF54; [3]): 0.149 µM
Pe [1, 2]: 4.31 10^−6 cm/s
Papp at 5 h, 200 µM [1, 2]: 3.77 ×10⁻⁶ cm/s
IC50 at 72 h (in vitro): 31.8 µM

CC(C)(C)OC(=O)N1CCN(c2ccc(NC(=O)c3ccccc3Oc3ccccc3)cc2)CC1 [Compound 40, tert-Butyl 4-[4-(2-phenoxybenzamido)phenyl]piperazin-1-carboxylate]
S.I. = IC50 (Cyt.)/IC50 (PfNF54) (P. falciparum NF54): 31.78
IC50 (P. falciparum NF54; [3]): 3.09 µM
Papp at 5 h, 200 µM [1, 2]: 5.57 ×10⁻⁶ cm/s
IC50 at 72 h (in vitro): 98.3 µM

CC(C)(C)OC(=O)N1CCN(c2ccc(NC(=O)c3cccc(C(F)(F)F)c3Nc3ccccc3)cc2)CC1 [Compound 41, tert-Butyl 4-{4-[2-anilino-3-(trifluoromethyl)benzamido]phenyl}piperazin-1-carboxylate]
IC50 (P. falciparum NF54; [3]): 0.539 to 0.634 µM
IC50 (P. falciparum NF54; [4]): 0.634 µM
Papp at 5 h, 200 µM [1, 2]: 1.32 ×10⁻⁶ cm/s
IC50 at 72 h (in vitro): 33.8 µM

CC(C)(C)OC(=O)N1CCN(c2ccc(NC(=O)c3cccc(C(F)(F)F)c3Nc3ccc(F)cc3)cc2)CC1 [Compound 42]
IC50 (P. falciparum NF54; [3]): 0.539 to 0.634 µM
IC50 (P. falciparum NF54; [4]): 0.539 µM
Papp at 5 h, 200 µM [1, 2]: 0.2 ×10⁻⁶ cm/s
IC50 at 72 h (in vitro): 94.2 µM

CC(C)(C)C(=O)N1CCN(c2ccc(NC(=O)c3ccccc3Oc3ccc(F)cc3)cc2)CC1 [Compound 43, N-{4-[4-(2,2-Dimethylpropanoyl)piperazin-1-yl]phenyl}-2-(4-fluorophenoxy)benzamid]
IC50 (P. falciparum NF54; [3]): 5.62 µM
Papp at 5 h, 200 µM [1, 2]: 0.02 ×10⁻⁶ cm/s
IC50 at 72 h (in vitro): 184 µM

CC(C)(C)C(=O)N1CCN(c2ccc(NC(=O)c3cccc(F)c3Oc3ccc(F)cc3)cc2)CC1 [Compound 45, N-{4-[4-(2,2-Dimethylpropanoyl)piperazin-1-yl]phenyl}-3-fluoro-2-(4-fluorophenoxy)benzamid]
IC50 (P. falciparum NF54; [3]): 1.79 µM
Papp at 5 h, 200 µM [1, 2]: 5.13 ×10⁻⁶ cm/s
IC50 at 72 h (in vitro): 109 µM

CC(C)(C)OC(=O)N1CCN(c2ccccc2NC(=O)c2cccc(N)c2Oc2ccc(F)cc2)CC1 [Compound 46, tert-Butyl 4-{2-[3-amino-2-(4-fluorophenoxy)benzamido]phenyl}piperazine-1-carboxylate]
S.I. = IC50 (Cyt.)/IC50 (PfNF54) (P. falciparum NF54): 126.0
IC50 (P. falciparum NF54; [3]): 1.01 µM
Papp at 5 h, 200 µM [1, 2]: 1.44 ×10⁻⁶ cm/s
IC50 at 72 h (in vitro): 127 µM

NS(=O)(=O)c1cc2c(cc1Cl)NCNS2(=O)=O [Hydrochlorothiazide, reference compound]
Pe ([1]; PAMPA standards): 0.9 nm/s
